Laboratory results as given in patent publication US20020049162A1, “Methods for inhibiting smooth muscle cell proliferation” (priority 2000, published 2002).
Entries after “also recorded” stand apart in the source; their conditions may differ. Square brackets hold non-standard residues; d marks the D form. Ends that are not written are not given here. Phe(4-NH2) = Nc1ccc(C[C@H](N)C(=O)O)cc1

Columns and labels:
[1] = test system: Human coronary artery smooth muscle cells; assay: Inhibition of human smooth muscle cell proliferation (cell counts, growth rate vs wells without peptide); assay type: cell-based; settings: for % Control Proliferation Day 1 vs Day 4 / % Control Proliferation Day 1 vs Day 7: percentage of the control growth rate, values below 100 = inhibition, peptides 0.1-10 μg/ml, concentration not given; for Effect on proliferation of human smooth muscle cells (in words): compared with wells that did not contain peptide
[2] = test system: smooth muscle cell; settings: Strawn et al., Hypertension 33:207-211 (1999); cited from earlier work
[3] = test system: smooth muscle cell growth after vascular injury; settings: Strawn et al., Hypertension 33:207-211 (1999); cited from earlier work
[4] = test system: AT2 receptor; settings: cited from earlier work
[5] = Unspecified earlier test of effectiveness of AII fragments; settings: test not described

| Substance | % Control Proliferation Day 1 vs Day 4 [1] | % Control Proliferation Day 1 vs Day 7 [1] | Effect on proliferation of human smooth muscle cells (in words) [1] | other results |
| --- | --- | --- | --- | --- |
| A(1-7): AII residues 1-7, SEQ ID NO:4 (DRVYIHP) [reference compound] | 73.3% | 63.3% | – | Smooth muscle cell proliferation (in words) [2]: inhibit smooth muscle cell proliferation; Smooth muscle cell growth after vascular injury (in words) [3]: reduce smooth muscle cell growth after vascular injury |
| Arg—Val—Tyr—Ile—His—Pro (RVYIHP) [A(2-7)] | 82.4% | 64.8% | inhibited smooth muscle cell proliferation | – |
| Asp—Arg—Val—Tyr—Ile (DRVYI) [A(1-5)] | 85.9% | 83.1% | – | – |
| Asp—Arg—Val—Tyr—Ile—His—Pro—Phe (DRVYIHPF) [AII, reference compound] | 121.4% | 154.5% | increased the proliferation | Affinity for AT2 relative to AT1 ([4]; higher affinity for AT2 than AT1, Speth and Kim 1990): 100 times |
| Asp—Arg—Val—Tyr—Ile—Xaa—Pro—Phe (DRVYI[Phe(4-NH2)]PF) [p-aminophenylalanine6-AII] | – | – | – | Binding characteristics (in words) ([4]; experimental models of Catalioto 1994, Bryson 1992): comparable to AT2 antagonists |
| DRKYIHP [Peptide 5GD] | 86.6% | 80.1% | inhibited smooth muscle cell proliferation | – |
| DRP(OH)AIHP [Peptide 8GD] | 72.6% | 66.4% | inhibited smooth muscle cell proliferation | – |
| DRVAIHP [Peptide 1GD] | 55.4% | 54.2% | inhibited smooth muscle cell proliferation | – |
| DRVYIH [A(1-6)] | 76.5% | 61.1% | inhibited smooth muscle cell proliferation | – |
| His—Pro—Phe (HPF) [AII(6-8)] | – | – | – | Effectiveness (in words) [5]: not to be effective |
| Ile—His—Pro—Phe (IHPF) [A(5-8)] | 63.1% | 55.0% | inhibited smooth muscle cell proliferation | – |
| Tyr—Ile—His—Pro—Phe (YIHPF) [AII(4-8)] | – | – | – | Effectiveness (in words) [5]: not to be effective; also recorded: ineffective |
| Val—Tyr—Ile—His—Pro (VYIHP) [A(3-7)] | 80.5% | 70.0% | inhibited smooth muscle cell proliferation | – |
| Val—Tyr—Ile—His—Pro—Phe (VYIHPF) [A(3-8)] | 74.7% | 61.7% | inhibited smooth muscle cell proliferation | – |
